The experiment relates to mouse Lin−Sca1+c-Kit+CD48− cells. Briefly: In vitro HSC culture, cell counting and live/dead viability assay (mouse). Format: cell-based. The procedure: A. Schematic of treatment protocol. C57BL/6 mice were injected with three different doses of AZA (1.25, 2.5 and 5 mg/kg/d) for 3 days. 24 h after last AZA injection BM was analyzed for HSC-depletion and Ki67 intracellular protein expression. B. Overlay histogram of Ki67 intracellular protein expression in LT-HSC (gated from live, Lin^−Sca1^+c-Kit^+CD150^+CD48^− cells) in mice treated with AZA 1.25 mg/kg, 2.5 mg/kg and 5 mg/kg/d for 3 consecutive days. C. Mean fluorescence intensity (MFI) of Ki67 intracellular protein expression in LT-HSC, ST-HSC, MPP2, MPP3/4 and myeloid progenitors (MP). Data were pooled from 2 independent experiments and represent mean±SD (n=7). Statistics were calculated Mann-Whitney test (*P<0.05; **P<0.01; ***P<0.001). […] After 48 h % live/dead cells was assessed by using EarlyTox Live/Dead Assay Kit. E. Proliferation curves of FACS-sorted mouse Lin^−Sca1^+c-Kit^+CD48^− in the presence of indicated concentrations of AZA (left) and cell viability as assessed by % of Calcein AM positive cells after 48 h of cell culture (right). […] Statistics were calculated with Mann-Whitney test (*P<0.05; **P<0.01; ***P<0.001). F. Proliferation curves of FACS-sorted human Lin^−CD34^+CD38^− cells in the presence of indicated concentrations of AZA (left) and cell viability as assessed by % of Calcein AM positive cells after 48 h of cell culture (right). […]

Take `Nc1ncn([C@@H]2O[C@H](CO)[C@@H](O)[C@H]2O)c(=O)n1` [AZA, 5-Azacytidine]: the “number of cells in culture” value (AZA 0.1, 0.5 and 1 μg/ml at baseline and 24 h, 48 h culture with SCF and TPO) is recorded as “reduced the number of cells in a dose dependent manner”. For the same compound, under “AZA concentrations 0.1 μg/ml, 48 h”, the “cell viability by Calcein AM” value is listed as “significant decrease in cell viability”.

The record behind these values is patent US12564609B2, “Hematopoietic stem cell engraftment with a combination of agents” (The Board of Trustees of the Leland Stanford Junior …, priority 2020, dated 2026).
